Laboratory results taken from article PMC8354230 (Journal of Virology, 2021).
Read-outs that look alike come from different tables or passages of the source.

How the values were obtained:
[1] = test system: SARS-CoV-2 S protein-mediated cell-cell fusion; test: microbe, parasite or virus in culture; type: cell-based
[2] = test system: 293FT/ACE2/TMPRSS2/DSP1-7 cells; conditions: 2 days; for CC50: 293FT/ACE2/TMPRSS2/DSP1-7 cells; for CC50 / concentration above which cytotoxicity was exhibited: WST-8; for cell viability: at concentrations above 40 µM
[3] = test system: 293FT/ACE2/TMPRSS2/DSP1-7 cells; test: Quantification of sphingolipids by LC-MS/MS in 293FT/ACE2/TMPRSS2/DSP1-7 cells; type: cell-based; conditions: for reduction in total sphingolipid levels: 40 µM, vs DMSO
[4] = test system: ACE2; test: Cell surface expression of ACE2 by flow cytometry; type: cell-based; conditions: 293FT/ACE2/TMPRSS2/DSP1-7 cells, 5 µM, compared with DMSO or 10 µM GT11
[5] = test system: 293FT/ACE2/TMPRSS2/DSP1-7 cells; test: Cellular membrane fluidity with lipophilic pyrene probe; type: cell-based; conditions: for decrease in membrane fluidity: 2 days, compared with DMSO
[6] = test system: SARS-CoV-2 NCGM-05-2N strain; test: microbe, parasite or virus in culture; type: cell-based
[7] = test system: ACE2; type: cell-based; conditions: 5 µM 4-HPR vs DMSO
[8] = cited from earlier work
[9] = test system: VeroE6^TMPRSS2 cells; test: Quantification of sphingolipids by LC-MS/MS in VeroE6^TMPRSS2 cells; type: cell-based; conditions: 3 days
[10] = in vitro; conditions: human
[11] = test system: VeroE6^TMPRSS2 cells; test: WST-8 cytotoxicity assay in VeroE6^TMPRSS2 cells; type: cell-based; conditions: 3 days; for concentration above which cytotoxicity was exhibited: WST-8
[12] = test system: HEK293FT cells expressing DSP1-7 and DSP8-11; type: cell-based; conditions: 2 days treatment
[13] = Severe acute respiratory syndrome coronavirus 2, 48 h

| Compound | EC50 [1] [µM] | antimembrane fusion activity [1] | CC50 [2] [µM] | concentration above which cytotoxicity was exhibited [2] | EC50 [1, 13] [µM] | CC50 [10] [µM] | cell viability [2] | other results |
| --- | --- | --- | --- | --- | --- | --- | --- | --- |
| O=C(/C=C/c1ccc(/C=C/C(=O)Nc2ccc(C3=NCCN3)cc2)cc1)Nc1ccc(C2=NCCN2)cc1 [GW4869] | > 10 | little or no antimembrane fusion activity | > 40 | above 20 µM |  |  |  |  |
| CCCCCCCCCCCCC/C=C/[C@@H](O)[C@H](CO)NC(=O)CCCCCCC [C8-Cer, N-Octanoyl-d-erythro-sphingosine] |  |  |  |  |  |  |  | cell-cell fusion efficiencies [1]: no significant differences; decrease in ratio of saturated sphinganine-based lipids to total sphingolipids ([3]; 10 µM C8-Cer with 5 µM 4-HPR, compared to 4-HPR treated cells): approximately 74% |
| CC1=C(/C=C/C(C)=C/C=C/C(C)=C/C(=O)Nc2ccc(O)cc2)C(C)(C)CCC1 [4-HPR, N-(4-Hydroxyphenyl) retinamide] |  |  |  | above 10 µM | 4.1 | 11.5 |  | ACE2 expression levels on cell surface [4]: No significant differences; decrease in membrane fluidity ([5]; 2.5 µM): ~20%; decrease in membrane fluidity ([5]; 5 µM): about 50%; antiviral activity [6]: no antiviral activity; EC50 ([6]; Severe acute respiratory syndrome coronavirus 2, VeroE6/TMPRSS2): 4.4 µM; ACE2 localization in the membrane microdomain [7]: no dramatic difference; toxicity profile in clinical trials and long-term treatments [8]: low-toxicity profile; day 6 mean peak plasma concentration ([8]; oral powder, 1,500 mg/m^2 per day, patients with relapsed/refractory neuroblastoma): 21 µM; ratio of saturated sphinganine-based lipids to total sphingolipids ([9]; 1.3 µM): 12%; ratio of saturated sphinganine-based lipids to total sphingolipids ([9]; 2.5 µM): 17%; ratio of saturated sphinganine-based lipids to total sphingolipids ([9]; 5 µM): 25%; inhibition of DSP activity (cell-cell fusion) [1]: more than 50%; ratio of saturated sphinganine-based lipids to total sphingolipids ([3]; 2.5 µM 4-HPR, 2 days): ~10%; ratio of saturated sphinganine-based lipids to total sphingolipids ([3]; 5 µM 4-HPR, 2 days): ~20%; concentration above which cytotoxicity was exhibited [11]: above 10 µM; luciferase activity in cells harboring preformed DSP1-7/DSP8-11 reporter complex [12]: not affected |
| CCCCCCCCCCCCCC1=C([C@H](O)[C@@H](CO)NC(=O)CCCCCCC)C1 [GT11] | > 10 | little or no antimembrane fusion activity | 20.3 | above 20 µM |  |  |  | membrane fluidity ([5]; 10 µM GT11 compared with 2.5 µM 4-HPR): not significantly different; antiviral activity [6]: no antiviral activity; ratio of saturated sphinganine-based lipids to total sphingolipids ([3]; 10 µM GT11, 2 days): ~10%; concentration above which cytotoxicity was exhibited [11]: above 10 µM |
| CCCCCCC(=O)CCCCCC/C=C/C[C@@H](O)[C@H](O)[C@@](N)(CO)C(=O)O [Myriocin] |  | little or no antimembrane fusion activity |  |  | > 40 | > 40 | unaffected | antiviral activity [6]: did not exhibit antiviral activity; reduction in total sphingolipid levels ([9]; vs DMSO): approximately 50%; reduction in total sphingolipid levels ([3]; 2 days): approximately 65%; effect on cell viability ([11]; at a concentration above 20 µM): no effect |
| COc1ccc(/C=C/C(=O)c2c(-c3ccccc3)c3ccccc3[nH]c2=O)cc1 [Ceranib-2] | > 1.3 | little or no antimembrane fusion activity | 26.9 | above 2.5 µM |  |  |  |  |
| CCCCCCCCc1ccc(CCC(N)(CO)CO)cc1 [FTY720] |  | little or no antimembrane fusion activity |  | above 10 µM | > 5 | 12.5 |  |  |
| CCCC[C@@H](C)[C@@H](OC(=O)C[C@@H](CC(=O)O)C(=O)O)[C@H](C[C@@H](C)C[C@H](O)CCCC[C@@H](O)C[C@H](O)[C@H](C)N)OC(=O)C[C@@H](CC(=O)O)C(=O)O [Fumonisin B1] | > 40 | little or no antimembrane fusion activity | > 40 |  |  |  | unaffected | reduction in total sphingolipid levels ([3]; 2 days): ~79% |
| Oc1ccc(Nc2nc(-c3ccc(Cl)cc3)cs2)cc1 [SKI-II] | > 10 | little or no antimembrane fusion activity | > 40 | above 20 µM |  |  |  |  |
| CCCCCCCCCCCCCCCC(=O)NC(CN1CCOCC1)C(O)c1ccccc1 (stereo not drawn) [erythro-PPMP] | 9.1 |  | 35.8 |  |  |  |  | levels of GlcCer ([3]; 10 µM, compared to DMSO-treated cells): decreased |
| CN(C)CCC=C1c2ccccc2CCc2ccccc21 [Amitriptyline] |  | little or no antimembrane fusion activity |  |  | > 40 | > 40 | unaffected |  |
| CCCCCCCCCCCCCCCC(=O)NC(CN1CCOCC1)C(O)c1ccccc1 (stereo not drawn) [threo-PPMP, 1-phenyl-2-palmitoylamino-3-morpholino-1-propanol] |  |  |  | above 20 µM | 8.7 | 25.6 |  | antiviral activity [6]: did not exhibit antiviral activity; reduction in total GlcCer levels ([9]; compared to DMSO): approximately 60%; inhibition of DSP activity (cell-cell fusion) [1]: more than 50%; concentration above which cytotoxicity was exhibited [11]: above 20 µM; luciferase activity in cells harboring preformed DSP1-7/DSP8-11 reporter complex [12]: not affected |
| CCCCCCCCCCCC(=O)N[C@@H](CO)C[C@H](O)c1ccccc1 [HPA12] | > 40 | little or no antimembrane fusion activity | > 40 |  |  |  | unaffected |  |
| O[C@H]1[C@H](O)[C@@H](O)[C@@H]2O[C@@H]2[C@@H]1O (racemic) [CBE, conduritol B epoxide] |  | little or no antimembrane fusion activity |  |  | > 40 | > 40 | unaffected |  |
